Here are results for 25 compounds from patent US10092584B2 (Achillion Pharmaceuticals, Inc., priority 2015, dated 2018).

Molecules are shown by their SMILES.

For one assay, the target named is T1, Human Factor D (Homo sapiens, UniProt P00746).
T1 construct: purified from human serum; purchased Complement Technology, Inc; host or cells: human serum
T1 sequence (P00746 26-253): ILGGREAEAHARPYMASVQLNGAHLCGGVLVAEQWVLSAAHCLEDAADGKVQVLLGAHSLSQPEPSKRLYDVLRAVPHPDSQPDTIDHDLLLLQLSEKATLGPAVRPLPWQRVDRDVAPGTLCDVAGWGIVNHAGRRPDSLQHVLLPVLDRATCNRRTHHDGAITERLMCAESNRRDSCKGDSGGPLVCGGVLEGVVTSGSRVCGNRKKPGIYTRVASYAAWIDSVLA
The assay is described as follows: Human Factor D assay (Example 8). The class given is biochemical.
Conditions: not given
On the procedure: Human Factor D (purified from human serum, Complement Technology, Inc.) at 80 nM final concentration was incubated with test compound at various concentrations for 5 minutes at room temperature in 50 mM Tris, 1M NaCl, pH 7.5. A synthetic substrate Z-L-Lys-SBzl and DTNB (Ellman's reagent) are added to final concentrations of 100 μM each. […] IC50 values are calculated by nonlinear regression of complement Factor D reaction rates as a function of test compound concentration.
As usually defined, the IC50 is the midpoint of a concentration-inhibition curve. Consider `CC(=O)c1cn(CC(=O)N2C[C@H](F)C[C@H]2C(=O)Nc2cccc(-c3cc(F)c(F)cc3Cl)c2F)c2ccccc12` [Compound 82, (2S,4R)-1-(2-(3-acetyl-1H-indol-1-yl)acetyl)-N-(2′-chloro-2,4′,5′-trifluorobiphenyl-3-yl)-4-fluoropyrrolidine-2-carboxamide], for which the half-maximal inhibitory concentration (IC50) was below 1000 nM.
Same read-out and setting: the figure for `NC(=O)c1nn(CC(=O)N2C[C@H](F)C[C@H]2C(=O)Nc2cccc(-c3ccc(F)c(F)c3Cl)c2F)c2ccccc12` [Compound 92, 1-(2-((2S,4R)-2-(2′-chloro-2,3′,4′-trifluorobiphenyl-3-ylcarbamoyl)-4-fluoropyrrolidin-1-yl)-2-oxoethyl)-1H-indazole-3-carboxamide] is below 1000 nM; for `CC(=O)c1cn(CC(=O)N2C[C@H](F)C[C@H]2C(=O)Nc2cccc(-c3ccc(F)c(F)c3Cl)c2F)c2ccccc12` [Compound 93, (2S,4R)-1-(2-(3-acetyl-1H-indol-1-yl)acetyl)-N-(2′-chloro-2,3′,4′-trifluorobiphenyl-3-yl)-4-fluoropyrrolidine-2-carboxamide] it is below 1000 nM.
The same measure, in the same setting: the figure for `NC(=O)c1nn(CC(=O)N2C[C@H](F)C[C@H]2C(=O)Nc2cccc(-c3cc(F)cc(F)c3Cl)c2F)c2ccccc12` [Compound 94, 1-(2-((2S,4R)-2-(2′-chloro-2,3′,5′-trifluorobiphenyl-3-ylcarbamoyl)-4-fluoropyrrolidin-1-yl)-2-oxoethyl)-1H-indazole-3-carboxamide] is below 1000 nM; for `CC(=O)c1cn(CC(=O)N2C[C@H](F)C[C@H]2C(=O)Nc2cccc(-c3cc(F)cc(F)c3Cl)c2F)c2ccccc12` [Compound 95, (2S,4R)-1-(2-(3-acetyl-1H-indol-1-yl)acetyl)-N-(2′-chloro-2,3′,5′-trifluorobiphenyl-3-yl)-4-fluoropyrrolidine-2-carboxamide] it is below 1000 nM; for `CC(=O)c1cn(CC(=O)N2C[C@H](F)C[C@H]2C(=O)Nc2cccc(-c3ccccc3Cl)c2F)c2cccc(C#N)c12` [Compound 97, (2S,4R)-1-(2-(3-acetyl-4-cyano-1H-indol-1-yl)acetyl)-N-(2′-chloro-2-fluorobiphenyl-3-yl)-4-fluoropyrrolidine-2-carboxamide] it is below 1000 nM.
Same read-out and setting: to `N#Cc1cccc2c(C(N)=O)nn(CC(=O)N3C[C@H](F)C[C@H]3C(=O)Nc3cccc(-c4ccccc4Cl)c3F)c12` [Compound 111, 1-(2-((2S,4R)-2-((2′-Chloro-2-fluoro-[1,1′-biphenyl]-3-yl)carbamoyl)-4-fluoropyrrolidin-1-yl)-2-oxoethyl)-7-cyano-1H-indazole-3-carboxamide] belongs below 1000 nM; to `CC(=O)c1cn(CC(=O)N2C[C@H](F)C[C@H]2C(=O)Nc2cccc(-c3ccccc3Cl)c2F)c2c(-c3ccc(Cl)nc3)cccc12` [Compound 112, (2S,4R)-1-(2-(3-acetyl-7-(6-chloropyridin-3-yl)-1H-indol-1-yl)acetyl)-N-(2′-chloro-2-fluorobiphenyl-3-yl)-4-fluoropyrrolidine-2-carboxamide], below 1000 nM.
As for `CC(=O)c1cn(CC(=O)N2C[C@H](F)C[C@H]2C(=O)Nc2cccc(-c3ccccc3Cl)c2F)c2c(C3CC3)cccc12` [Compound 115, (2S,4R)-1-(2-(3-acetyl-7-cyclopropyl-1H-indol-1-yl)acetyl)-N-(2′-chloro-2-fluorobiphenyl-3-yl)-4-fluoropyrrolidine-2-carboxamide], the IC50 was below 1000 nM.
Take `CC(=O)c1ccc(Cl)c(-c2cccc(NC(=O)[C@@H]3C[C@@H](F)CN3C(=O)Cn3nc(C(N)=O)c4ccccc43)c2F)c1` [Compound 117, 1-(2-((2S,4R)-2-((5′-Acetyl-2′-chloro-2-fluoro-[1,1′-biphenyl]-3-yl)carbamoyl)-4-fluoropyrrolidin-1-yl)-2-oxoethyl)-1H-indazole-3-carboxamide]: the half-inhibitory concentration (IC50) is below 1000 nM.

The assay is the same for the next values; noted with them: Table 1; Human Factor D 80 nM, substrate Z-L-Lys-SBzl; read-out: IC50.
Regarding `NC(=O)c1nn(CC(=O)N2C[C@H](F)C[C@H]2C(=O)Nc2cccc(-c3cc(F)c(F)cc3Cl)c2F)c2cnccc12` [Compound 83, 1-(2-((2S,4R)-2-(2′-chloro-2,4′,5′-trifluorobiphenyl-3-ylcarbamoyl)-4-fluoropyrrolidin-1-yl)-2-oxoethyl)-1H-pyrazolo[3,4-c]pyridine-3-carboxamide], the IC50 is below 1000 nM.
Still for that read-out and setting: the figure for `CC(=O)n1cc(CC(=O)N2C[C@H](F)C[C@H]2C(=O)Nc2cccc(-c3ccccc3Cl)c2F)c2ccsc21` [Compound 90, (2S,4R)-1-(2-(6-acetyl-6H-thieno[2,3-b]pyrrol-4-yl)acetyl)-N-(2′-chloro-2-fluorobiphenyl-3-yl)-4-fluoropyrrolidine-2-carboxamide] is below 1000 nM.
In the case of `CC(=O)Nc1cccc2c1c(C(C)=O)cn2CC(=O)N1C[C@H](F)C[C@H]1C(=O)Nc1cccc(-c2ccccc2Cl)c1F` [Compound 91, (2S,4R)-1-(2-(4-acetamido-3-acetyl-1H-indol-1-yl)acetyl)-N-(2′-chloro-2-fluorobiphenyl-3-yl)-4-fluoropyrrolidine-2-carboxamide], the IC50 was above 10000 nM.
Still for that read-out and setting: the figure for `NC(=O)c1cn(CC(=O)N2C[C@H](F)C[C@H]2C(=O)Nc2cccc(-c3ccccc3Cl)c2F)c2sccc12` [Compound 98, 6-(2-((2S,4R)-2-(2′-chloro-2-fluorobiphenyl-3-ylcarbamoyl)-4-fluoropyrrolidin-1-yl)-2-oxoethyl)-6H-thieno[2,3-b]pyrrole-4-carboxamide] is below 1000 nM; for `NC(=O)c1nn(CC(=O)N2C[C@H](F)C[C@H]2C(=O)Nc2cccc(-c3ccccc3Cl)c2F)c2ccsc12` [Compound 99, 1-(2-((2S,4R)-2-((2′-Chloro-2-fluoro-[1,1′-biphenyl]-3-yl)carbamoyl)-4-fluoropyrrolidin-1-yl)-2-oxoethyl)-1H-thieno[3,2-c]pyrazole-3-carboxamide] it is below 1000 nM.
The same measure, in the same setting: to `NC(=O)c1nn(CC(=O)N2C[C@H](F)C[C@H]2C(=O)Nc2cccc(-c3c(F)cc(F)cc3Cl)n2)c2cnccc12` [Compound 100, 1-(2-((2S,4R)-2-(6-(2-chloro-4,6-difluorophenyl)pyridin-2-ylcarbamoyl)-4-fluoropyrrolidin-1-yl)-2-oxoethyl)-1H-pyrazolo[3,4-c]pyridine-3-carboxamide] belongs below 1000 nM.
Regarding `NC(=O)c1nn(CC(=O)N2C[C@H](F)C[C@H]2C(=O)Nc2cccc(-c3c(F)cc(F)cc3Cl)c2)c2cnccc12` [Compound 101, 1-(2-((2S,4R)-2-(2′-chloro-4′,6′-difluorobiphenyl-3-ylcarbamoyl)-4-fluoropyrrolidin-1-yl)-2-oxoethyl)-1H-pyrazolo[3,4-c]pyridine-3-carboxamide], the IC50 was below 1000 nM.
In the case of `NC(=O)c1cn(CC(=O)N2C[C@H](F)C[C@H]2C(=O)Nc2cccc(-c3ccccc3Cl)c2F)c2ccsc12` [Compound 103, 4-(2-((2S,4R)-2-(2′-chloro-2-fluorobiphenyl-3-ylcarbamoyl)-4-fluoropyrrolidin-1-yl)-2-oxoethyl)-4H-thieno[3,2-b]pyrrole-6-carboxamide], the IC50 was below 1000 nM.
Consider `NC(=O)c1nn(CC(=O)N2C[C@H](F)C[C@H]2C(=O)Nc2cccc(-c3ccccc3Cl)c2F)c2c1CCCC2` [Compound 104, 1-(2-((2S,4R)-2-((2′-chloro-2-fluoro-[1,1′-biphenyl]-3-yl)carbamoyl)-4-fluoropyrrolidin-1-yl)-2-oxoethyl)-4,5,6,7-tetrahydro-1H-indazole-3-carboxamide], for which the 50% inhibitory concentration (IC50) was below 1000 nM.
Take `NC(=O)c1nn(CC(=O)N2C[C@H](F)C[C@H]2C(=O)Nc2cccc(Br)n2)c2ccsc12` [Compound 106, 1-(2-((2S,4R)-2-((6-Bromopyridin-2-yl)carbamoyl)-4-fluoropyrrolidin-1-yl)-2-oxoethyl)-1H-thieno[3,2-c]pyrazole-3-carboxamide]: the concentration for half-maximal inhibition (IC50) was below 1000 nM.
`NC(=O)c1nn(CC(=O)N2[C@@H]3C[C@@H]3C[C@H]2C(=O)NCc2cccc(Cl)c2F)c2ccsc12` [Compound 107, 1-(2-((1R,3S,5R)-3-(3-chloro-2-fluorobenzylcarbamoyl)-2-azabicyclo[3.1.0]hexan-2-yl)-2-oxoethyl)-1H-thieno[3,2-c]pyrazole-3-carboxamide]: the IC50 is below 1000 nM.
Consider `COc1ncc(-c2cn(CC(=O)N3C[C@H](F)C[C@H]3C(=O)Nc3cccc(-c4ccccc4Cl)c3F)nc2C(N)=O)cn1` [Compound 110, 1-(2-((2S,4R)-2-((2′-Chloro-2-fluoro-[1,1′-biphenyl]-3-yl)carbamoyl)-4-fluoropyrrolidin-1-yl)-2-oxoethyl)-4-(2-methoxypyrimidin-5-yl)-1H-pyrazole-3-carboxamide], for which the IC50 is above 10000 nM.
Same read-out and setting: to `Cc1cc2c(s1)c(C(N)=O)nn2CC(=O)N1C[C@H](F)C[C@H]1C(=O)Nc1cccc(-c2ccccc2Cl)c1F` [Compound 113, 1-(2-((2S,4R)-2-((2′-Chloro-2-fluoro-[1,1′-biphenyl]-3-yl)carbamoyl)-4-fluoropyrrolidin-1-yl)-2-oxoethyl)-5-methyl-1H-thieno[3,2-c]pyrazole-3-carboxamide] belongs below 1000 nM.
Same read-out and setting: to `CC(=O)c1cn(CC(=O)N2C[C@H](F)C[C@H]2C(=O)Nc2cccc(-c3ccccc3Cl)c2F)c2c(-c3cn[nH]c3)cccc12` [Compound 114, (2S,4R)-1-(2-(3-acetyl-7-(1H-pyrazol-4-yl)-1H-indol-1-yl)acetyl)-N-(2′-chloro-2-fluorobiphenyl-3-yl)-4-fluoropyrrolidine-2-carboxamide] belongs below 1000 nM; to `Cc1cc2c(s1)c(C(N)=O)nn2CC(=O)N1C[C@H](F)C[C@H]1C(=O)Nc1cccc(Br)n1` [Compound 118, 1-(2-((2S,4R)-2-(6-bromopyridin-2-ylcarbamoyl)-4-fluoropyrrolidin-1-yl)-2-oxoethyl)-5-methyl-1H-thieno[3,2-c]pyrazole-3-carboxamide], below 1000 nM.
